Reference: patent US10543155B2, “Compositions containing zinc salts and isothiocyanates for reduction of oral volatile sulfur compounds (VSCs)” (priority 2011, dated 2020)

Columns and labels:
[1] = in vitro reduction of headspace H2S by isothiocyanates (GC-SCD); conditions: for Peak Area (headspace H2S): 200 ppm H2S in 5 ml PBS pH 7.4, 5 min 37° C.
Experimental: A stock solution of H2S was prepared by a serial dilution in PBS buffer (pH 7.4), with a final concentration of 200 ppm. Allyl isothiocyanate, benzyl isothiocyanate, ethyl isothiocyanate and 3-methylthiopropyl isothiocyanate (all from Sigma-Aldrich) were dissolved in pure ethanol to form 1.0% of working solution of each. A total of 5 ml PBS buffer containing 200 ppm of H2S in a headspace vial (22 ml volume) was mixed with 0.125, 0.25, 0.5 and 1 mg of each isothiocyanate compound for 5 min at 37° C., respectively. The headspace sample was injected into the GC-SCD by an automatic sampler for VSC analysis. The reduction of headspace concentration of H2S was calculated by the formula below: […]
In view of the results pertaining to allyl isothiocyanate in Table 1, Applicants further evaluated allyl isothiocyanate in vitro for its VSC elimination effect of hydrogen sulfide (H2S). A […] headspace vial containing 5 ml of PBS solution and 200 ppm of H2S was treated with various concentrations of allyl isothiocyanate, respectively (0.25-1.0 mg). In a standard experimental protocol, a stock of hydrogen sulfide solutions were prepared by dissolving c.a. 0.10 g of sodium sulfide in a total of 10 ml phosphate buffer solution (PBS) (pH 7.4). It was further diluted in PBS to produce a working solution contained 200 ppm of H2S in buffer.

[2] = zinc lactate and AITC against VSC mixture, headspace GC-SCD: CH3SH; conditions: 1 mg in 5 ml VSC mixture (200 ppm H2S, 40 ppm CH3SH), 37° C. 5 min, FIG. 4
Experimental: (§1) The final concentrations of H2S and CH3SH in solution were a 200 and 40 ppm, respectively. The final amount of VSC was 1.2 mg in the test vial. Although the headspace concentrations of H2S and CH3SH were well above the level found in a typical foul mouth air (200-500 parts per billion), the total amount of VSC was close to the amount presented in oral cavity. Subsequently, 5 ml of the VSC mixture was kept in a 22 ml tight screw cap headspace vial at 37° C. for 5 min. The headspace sample was injected into a GC column with an SCD detector. […] The large peak area of CH3SH reflects its volatility in the headspace compared with H2S.
(§2) Separately, 1 mg of zinc lactate, or 1 mg of allyl isothiocyanate (AITC), or combination of 1 mg Zinc lactate and 1 mg of AITC were added to each of headspace vial containing 5 ml VSC mixture and equilibrated at 37° C. for 5 min. Each headspace sample was injected into a GC column by a Combi-Pal auto-sampler. The amount of sulfur was analyzed by an Agilent SCD-355 chemoluminescent sulfide detector.

[3] = zinc lactate and AITC against VSC mixture, headspace GC-SCD: H2S; conditions: 1 mg in 5 ml VSC mixture (200 ppm H2S, 40 ppm CH3SH), 37° C. 5 min, FIG. 4
Experimental: as §1, §2

[4] = in vitro headspace GC-SCD test of zinc salts against H2S; conditions: 5 ml PBS containing 1 mg H2S, 37° C. 5 min; for reduces the oral malodor produced by hydrogen sulfide (H2S): FIG. 2
Experimental: In another experiment, 5 ml of PBS solution containing 1 mg of H2S was prepared via a serial dilution in a 22 ml headspace vial for FIG. 2 below. Different amounts of zinc salts were added and mixed at 37° C. for 5 min. The headspace concentration of H2S was analyzed by GC-SCD.

[5] = in vitro headspace GC-SCD test of zinc salts against methyl mercaptan; conditions: 200 ppm CH3SH in 5 ml PBS pH 7.4, 5 minutes at 37° C., FIG. 1
Experimental: For evaluation of the efficacy of various zinc salts against specific VSCs, the Applicants established an in vitro method using a headspace gas-chromatograph equipped with a sulfur detector. Thus, a total of 200 ppm of CH3SH in 5 ml of phosphate buffer solution (PBS) was prepared. The pH was maintained at 7.4. […] The headspace sample was injected into a gas chromatograph sulfur chemiluminescence detector (GC-SCD).

[6] = 50 ppm isothiocyanate, 200 ppm H2S
[7] = 100 ppm isothiocyanate, 200 ppm H2S
[8] = 200 ppm isothiocyanate, 200 ppm H2S

For CSCCCN=C=S [3-methylthiopropyl isothiocyanate], the “% Reduction of headspace concentration (H2S)” value (from here on “% Reduction”) [1, 6] was 51%, the “Peak Area (headspace H2S)” value ([1]; 50 ppm isothiocyanate) was 416687277 and the “% Reduction” value [1, 7] was 75%. The “Peak Area (headspace H2S)” value ([1]; 100 ppm isothiocyanate) was 211177117, the “% Reduction” value [1, 8] was 94.5% and the “Peak Area (headspace H2S)” value ([1]; 200 ppm isothiocyanate) was 46897168.

With C=CCN=C=S [Allyl isothiocyanate, allyl isothiocyanate] the “Reduction of H2S” value ([1]; 0.25 mg allyl isothiocyanate, 5 ml PBS, 200 ppm H2S) was 49.0%, the “Reduction of H2S” value ([1]; 0.5 mg allyl isothiocyanate, 5 ml PBS, 200 ppm H2S) was 98.4% and the “Reduction of H2S” value ([1]; 1 mg allyl isothiocyanate, 5 ml PBS, 200 ppm H2S) was 99.5%. For the same compound, the “% Reduction” value [1, 6] was 49%, the “Peak Area (headspace H2S)” value ([1]; 50 ppm isothiocyanate) was 431713256 and the “% Reduction” value [1, 7] was 98.4%. For the same compound, the “Peak Area (headspace H2S)” value ([1]; 100 ppm isothiocyanate) was 13651581, the “% Reduction” value [1, 8] was 99.5% and the “Peak Area (headspace H2S)” value ([1]; 200 ppm isothiocyanate) was 4266119. For the same compound, the “Reduction of H2S” value ([1]; at 100 ppm or greater) was “greater than 90%”, the CH3SH eliminated [2] was 78% and the H2S eliminated [3] was 98%.

With S=C=NCc1ccccc1 [Benzyl isothiocyanate, benzyl isothiocyanate] the “% Reduction” value ([1]; 25 ppm isothiocyanate, 200 ppm H2S) was 42%, the “Peak Area (headspace H2S)” value ([1]; 25 ppm isothiocyanate) was 491908604 and the “% Reduction” value [1, 6] was 53%. For the same compound, the “Peak Area (headspace H2S)” value ([1]; 50 ppm isothiocyanate) was 398519292 and the “% Reduction” value ([1]; 50 ppm isothiocyanate, 200 ppm H2S, listed as benzyl isothiocyanate) was “greater than 50%”.

With CCN=C=S [Ethylisothiocyanate, ethyl isothiocyanate] the “% Reduction” value [1, 6] was −13%, the “Peak Area (headspace H2S)” value ([1]; 50 ppm isothiocyanate) was 963110533 and the “% Reduction” value [1, 7] was 14.9%. For the same compound, the “Peak Area (headspace H2S)” value ([1]; 100 ppm isothiocyanate) was 726258436, the “% Reduction” value [1, 8] was 68% and the “Peak Area (headspace H2S)” value ([1]; 200 ppm isothiocyanate) was 271822727. For the same compound, the “% Reduction” value ([1]; 200 ppm isothiocyanate, 200 ppm H2S, listed as ethylisothiocyanate) was 68%.

In the case of CC(O)C(=O)[O-].CC(O)C(=O)[O-].[Zn+2] (stereo not drawn) [zinc lactate], the “reduces the oral malodor produced by hydrogen sulfide (H2S)” value (from here on “reduces the oral malodor produced”) [4] is reported as “reduces”, the “amount of zinc salt above which H2S is reduced” value ([4]; in vitro) is reported as “greater than 0.25 mg” and the CH3SH eliminated [2] is reported as 0%. For the same compound, the “reducing the headspace concentration of methyl mercaptan (CH3SH)” value [5] was “ineffective” and the H2S eliminated [3] was 98%.

In the case of zinc ascorbate, the “reduces the oral malodor produced” value [4] is reported as “reduces”.

For zinc gluconate, the “reduces the oral malodor produced” value [4] was “reduces” and the “reducing the headspace concentration of methyl mercaptan (CH3SH)” value [5] was “ineffective”.

For zinc hydrogen aspartate, the “reduces the oral malodor produced” value [4] was “reduces”.
